The source of these data is PubChem BioAssay AID1919003 (Molecular Pharmacology Branch, DTP, NCI, 2023).

In the assay the test system is 786-0 complex spheroids with HUVEC/MSC, growth % test/control. Description: Anticancer human tumor 786-0 cell line growth inhibition [AhR].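 As to all read-outs here: compound exposure lasted seven days before the read-out.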 To be noted: for viability, T/C: stronger effect = lower value. An excerpt:
Multicellular complex tumor spheroid response to aryl hydrocarbon receptor antagonists in combination with a variety of drugs and investigational agents in selected tumor cell lines
The current study was undertaken to assess response to aryl hydrocarbon receptor antagonists in combination with standard-of-care drugs and investigational agents in solid tumor complex spheroid models. Complex spheroids include a stromal component modeled by human endothelial cells (HUVEC) and fibroblasts modeled by human mesenchymal stem cells (MSCs). The concentration ranges selected for each drug and investigational agent were based upon clinically achievable concentrations if the clinical Cmax of the agent was known.
Compounds. The drugs and investigational agents: BAY 2416964 (NSC825713), GNF351 (NSC835774), CH-223191 (NSC835775), CPI-455 (NSC825282), aza-TdCyd (NSC777586), decitabine (NSC127716), belinostat (NSC758774), entinostat (NSC756642), pevonedistat (NSC761192), tazemetostat (NSC777109), talazoparib (NSC765396), olaparib (NSC753686), selinexor (NSC780203), nedisertib (M3814, NSC802822), bortezomib (NSC756655), venetoclax (NSC766270), doxorubicin (NSC123127), elimusertib (BAY189344, NSC800525), ceralasertib (AZD6738, NSC777638), TAK-243 (NSC785004), alisertib (NSC759677), etoposide (NSC141540), topotecan (NSC609699), eribulin (NSC707389), gemcitabine (NSC613327), carboplatin (NSC241240), cisplatin (NSC119875), and SN-38 (NSC673596) were obtained from the National Cancer Institute (NCI) Developmental Therapeutics Program Chemical Repository (32). The FDA-approved anticancer drug set is available from the Developmental Therapeutics Program at https://dtp.cancer.gov/organization/dscb/obtaining/available plates.htm. […] The stock solutions were prepared in dimethyl sulfoxide (DMSO, Sigma-Aldrich, St. Louis, MO, cat. D2650), except for the platinum compounds which were prepared in saline (Quality Biological, Gaithersburg, MD, cat. 114-055-101), at 800-fold the tested concentration and stored at -70 degrees C prior to their use. All drugs and investigational agents were tested over a range starting from a high concentration at or near the clinical Cmax and decreasing in half-log increments. If the clinical Cmax for an agent had not been determined, the highest concentration tested was 10 microM (Table 1).
Cell Culture. All cells were maintained in an incubator at 37 degrees C and 5% CO2 with 95% humidity. The PDC lines were cultured according to standard operating procedures established by the NCI PDMR (https://pdmr.cancer.gov). Briefly, all PDCs were thawed and cultured in Matrigel-coated flasks prepared with a working solution of 1X Ham's F-12 nutrient mix, without supplementation (Invitrogen, Waltham, MA, cat. 11765054), 100 U/mL penicillin-streptomycin (Invitrogen, cat. 15140122), and 2.5% Matrigel (Corning Inc., Corning, NY, cat. 354248) for the first three passages. All PDCs were cultured in complete DMEM/F-12 media containing advanced DMEM/F-12 (Invitrogen, cat. 12634028), 4.9% defined fetal bovine serum, heat inactivated (HyClone Laboratories Inc., Logan, UT, cat. SH30070.03HI), 389 ng/mL hydrocortisone (Sigma-Aldrich, cat. H4001), 9.7 ng/mL human EGF recombinant protein (Invitrogen, cat. PHG0313), 23.4 microg/mL adenine (Sigma-Aldrich, cat. A2786), 97.3 U/mL penicillin-streptomycin (Invitrogen, cat. 15140122), 1.9 mM L-glutamine (Invitrogen, cat. 25030081), and 9.7 microM Y-27632 dihydrochloride (Tocris Bioscience, Bristol, United Kingdom, cat. 1254). The PDCs were cultured in complete DMEM/F12 media without 10 microM Y-27632 dihydrochloride for at least two passages prior to the screen. The established cell lines NCI-H1341 and […] were cultured in DMEM/F-12, HEPES (Invitrogen, cat. 11330032), 5% defined fetal bovine serum (HyClone Laboratories Inc., cat. SH30070.03), ITS premix universal culture supplement [insulin (5 microg/mL), transferrin (5 microg/mL), and selenious acid (5 ng/mL)] […]

Where “and” joins values, the source holds several entries; their conditions need not be identical. Identical values can stand only once.

In the case of `CC1(C)CCC(CN2CCN(c3ccc(C(=O)NS(=O)(=O)c4ccc(NCC5CCOCC5)c([N+](=O)[O-])c4)c(Oc4cnc5[nH]ccc5c4)c3)CC2)=C(c2ccc(Cl)cc2)C1` + CC(CO)NC(=O)c1cc(-c2ccc(Cl)cc2)nn(-c2cnn(C)c2)c1=O, the IC50 runs as follows: (curve of first compound, second compound 0.1 µM) over 10000 nM; (curve of first compound, second compound 0.316 µM) over 10000 nM; (curve of first compound, second compound 1 µM) over 10000 nM; (curve of first compound, second compound 3.16 µM) over 10000 nM; (curve of first compound, second compound 10 µM) over 10000 nM. For the same molecule, the viability, T/C was 109% (second compound 0.1 µM, first compound 0.0316 µM); 101% (second compound 0.1 µM, first compound 0.1 µM); 106% (second compound 0.1 µM, first compound 0.316 µM); 99.9% (second compound 0.1 µM, first compound 1 µM); 90.7% (second compound 0.1 µM, first compound 3.16 µM); 77.7% (second compound 0.1 µM, first compound 10 µM). In addition, the viability, T/C was 105% (second compound 0.316 µM, first compound 0.0316 µM); 115% (second compound 0.316 µM, first compound 0.1 µM); 101% (second compound 0.316 µM, first compound 0.316 µM); 98.4% (second compound 0.316 µM, first compound 1 µM); 91.3% (second compound 0.316 µM, first compound 3.16 µM); 81.3% (second compound 0.316 µM, first compound 10 µM). For the same molecule, the viability, T/C by setting is: (second compound 1 µM, first compound 0.0316 µM) 105%; (second compound 1 µM, first compound 0.1 µM) 103%; (second compound 1 µM, first compound 0.316 µM) 106%; (second compound 1 µM, first compound 1 µM) 97.9%; (second compound 1 µM, first compound 3.16 µM) 104%; (second compound 1 µM, first compound 10 µM) 80.8%. In addition, the viability, T/C runs as follows: (second compound 3.16 µM, first compound 0.0316 µM) 116%; (second compound 3.16 µM, first compound 0.1 µM) 111%; (second compound 3.16 µM, first compound 0.316 µM) 104%; (second compound 3.16 µM, first compound 1 µM) 96.4%; (second compound 3.16 µM, first compound 3.16 µM) 82.9%; (second compound 3.16 µM, first compound 10 µM) 82.5%. Further, the viability, T/C is, setting by setting: (second compound 10 µM, first compound 0.0316 µM) 114%; (second compound 10 µM, first compound 0.1 µM) 135%; (second compound 10 µM, first compound 0.316 µM) 109%; (second compound 10 µM, first compound 1 µM) 122%; (second compound 10 µM, first compound 3.16 µM) 98.4%; (second compound 10 µM, first compound 10 µM) 86.4%.
Turning to `NS(=O)(=O)OCC1CC(n2ccc3c(NC4CCc5ccccc54)ncnc32)CC1O` (configuration not stated), the viability, T/C runs as follows: (compound 0.0316 µM) 86.6% and 84.8% and 82.7%; (compound 0.1 µM) 82.9% and 78.3% and 70.6%; (compound 0.316 µM) 65.9% and 65% and 60.3%; (compound 1 µM) 28.2% and 41.9% and 20.8%; (compound 3.16 µM) 5.17% and 8.09% and 3.13%; (compound 10 µM) 3.31% and 4.15% and 1.12%. Moreover, the IC50 (curve of compound) was 512 nM and 630 nM and 411 nM.
